In patent US12065445B2, “CDK2 inhibitors and methods of using the same” (Cedilla Therapeutics, Inc., priority 2021, dated 2024):

Assays:
Kuramochi cells = experiment: BrdU Cell Proliferation Assay; type: cell-based; details: read-out: BrdU - KURAMOCHI.1: IC50
Procedure, shortened: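 Kuramochi cells were seeded at 2,000 cells/well, adhered overnight, then treated with a 10-point, 3-fold compound dilution series for 4 days. Proliferation was measured by a 1-hour BrdU pulse, anti-BrdU peroxidase colorimetric ELISA and 450 nm absorbance. Values were background-subtracted and normalized to DMSO wells.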

[1] = system: Kuramochi cells labeled with mApple-H2B; experiment: IncuCyte Cell Proliferation Assay; type: cell-based; details: 72 h
Procedure, shortened: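 Cells imaged at 0 and 72 h after compound treatment (10 points, ½ log dilution, 20 μM top), with fluorescent nuclei counted. Fold change in count was normalized to DMSO wells and fitted to dose-response curves to give GI50.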

Row | SMILES | IC50 (Kuramochi cells) | IC50 [1]
1 | C[C@@H](OCC1CCCCC1)[C@@H](COC1CCCCC1)NC(=O)[C@@H]1CN(C(=O)c2cncs2)CC12CN(C(=O)[C@H]1CC1(C)C)C2 [I-308] | ≤ 0.5 µM | 0.5 to 5 µM
2 | C[C@@H](OCC1CCCCC1)[C@@H](CO)NC(=O)[C@@H]1CN(C(=O)c2cnn(Cc3ccccc3)c2)CC12CN(C(=O)[C@H]1CC1(C)C)C2 [I-135A] | 0.5 to 5 µM | 0.5 to 5 µM
3 | CNC(=O)[C@@H](NC(=O)[C@@H]1CN(C(=O)c2sc(Cl)nc2C)CC12CN(C(=O)[C@H]1CC1(C)C)C2)[C@@H](C)OCC1CCCCC1 [I-208A] | ≤ 0.5 µM | ≤ 0.5 µM
4 | C[C@@H](OCC1CCCCC1)[C@H](NC(=O)[C@@H]1CN(C(=O)c2cnn(CC(F)(F)F)c2)CC12CN(C(=O)[C@H]1CC1(C)C)C2)C(=O)N1CCCCC1 [I-132] | 0.5 to 5 µM | 0.5 to 5 µM
5 | CNC(=O)[C@@H](NC(=O)[C@@H]1CN(C(=O)c2cncs2)CC12CN(CC1CCOC1)C2)[C@@H](C)OCC12CCC(CC1)OC2 (some centres unmarked) [I-345] | > 10 µM | > 20 µM
6 | CNC(=O)[C@@H](NC(=O)[C@@H]1CN(C(=O)c2sc(Cl)nc2Cl)CC12CN(C(=O)[C@H]1CC1(C)C)C2)[C@@H](C)OCC1CCCCC1 [I-232A] | 0.5 to 5 µM | 0.5 to 5 µM
7 | C[C@@H](OCC1CCCCC1)[C@H](NC(=O)[C@@H]1CN(C(=O)c2cnn(Cc3ccccc3)c2)CC12CN(C(=O)[C@H]1CC1(C)C)C2)C(=O)N1CCOCC1 [I-152A] | ≤ 0.5 µM | ≤ 0.5 µM
8 | Cc1cc(C(=O)N2CC(C(=O)N[C@H](C(=O)N3CCCCC3)[C@@H](C)OCC3CCCCC3)C3(C2)CN(C(=O)[C@H]2CC2(C)C)C3)sn1 (some centres unmarked) [I-311] | ≤ 0.5 µM | ≤ 0.5 µM
9 | CNC(=O)[C@@H](NC(=O)[C@@H]1CN(C(=O)c2cnn(Cc3ccccc3)c2)CC12CN(C(=O)[C@H]1CC1(C)C)C2)[C@@H](C)OC[C@H]1CC[C@H](OC)CC1 [I-403] | > 10 µM | > 20 µM
10 | C[C@@H](OCC1CCCCC1)[C@H](NC(=O)[C@H]1CN(C(=O)c2cnn(Cc3ccccc3)c2)CC12CN(C(=O)[C@H]1CC1(C)C)C2)C(=O)N1CCCCC1 [I-194B] | 0.5 to 5 µM | 5 to 20 µM
11 | C[C@@H](OCC1CCCCC1)[C@H](NC(=O)C1CN(C(=O)c2cncs2)CC12CN(C(=O)[C@H]1CC1(C)C)C2)C(=O)N1CCOCC1 (some centres unmarked) [I-138] | ≤ 0.5 µM | ≤ 0.5 µM
12 | C[C@@H](OCC1CCC(F)(F)CC1)[C@H](NC(=O)[C@@H]1CN(C(=O)c2cncs2)CC12CN(C(=O)[C@H]1CC1(C)C)C2)C(=O)N1C2CCC1COC2 [I-468] | ≤ 0.5 µM | ≤ 0.5 µM
13 | COc1ccc(CNC(=O)[C@@H]2CN(C(=O)c3cnn(Cc4ccccc4)c3)CC23CN(C(=O)[C@H]2CC2(C)C)C3)nn1 [I-371] | > 10 µM | > 20 µM
14 | CNC(=O)[C@@H](NC(=O)[C@H]1CN(C(=O)c2cnc(C)s2)CC12CN(C(=O)[C@H]1CC1(C)C)C2)[C@@H](C)OCC1CCCCC1 [I-156B] | > 10 µM | > 20 µM
15 | CNC(=O)[C@@H](NC(=O)[C@@H]1CN(C(=O)c2cncs2)CC12CN(C(=O)[C@H]1CC1(C)C)C2)[C@@H](C)OCC1CCC2(CC1)CC2 [I-355] | 0.5 to 5 µM | ≤ 0.5 µM
16 | CNC(=O)[C@@H](NC(=O)[C@@H]1CN(C(=O)c2cnn(Cc3ccccc3)c2)CC12CN(C(=O)[C@H]1CC1(C)C)C2)[C@@H](C)OCC12CC(C(=O)OC)(C1)C2 [I-299] | > 10 µM | > 20 µM
17 | CNC(=O)C(NC(=O)[C@@H]1CN(C(=O)c2cncs2)CC12CN(C(=O)[C@H]1CC1(C)C)C2)c1cccc(N2CCCCC2)n1 (some centres unmarked) [I-432] | > 10 µM | > 20 µM
18 | CNC(=O)[C@@H](NC(=O)[C@@H]1CN(C(=O)c2cncs2)CC12CN(C(=O)[C@H]1CC1(C)C)C2)[C@@H](C)OCC1CCCCC1 [I-129A] | 0.5 to 5 µM | 0.5 to 5 µM
19 | COC[C@H]1CCCN(C(=O)[C@@H](NC(=O)[C@@H]2CN(C(=O)c3cncs3)CC23CN(C(=O)[C@H]2CC2(C)C)C3)[C@@H](C)OCc2ccc(F)cc2)C1 [I-318] | 0.5 to 5 µM | 0.5 to 5 µM
